Reference: patent US10245252B2, “Use of alkylamidothiazoles in cosmetic or dermatological preparations for the prophylaxis or treatment of sensitive skin” (BEIERSDORF AG, priority 2013, dated 2019)

How the values were obtained:
Type in all cases: cell-based
[1] = test system: NFκB; test: NFκB activity assay (commercial assay from Cell Culture Service GmbH), NFκB activated by TNF-alpha; settings: NFκB activated by adding TNF-alpha; FIG. 1; very low concentrations
Text: The nuclear factor kappa B (NFκB) is a master regulator of inflammation. The expression of many pro-inflammatory mediators (e.g. cytokines and chemokines) is controlled by NFκB. The inhibition of the activation of NFκB is therefore an important mechanism for minimizing inflammation processes. To measure the NFκB activity, a commercial assay from Cell Culture Service GmbH, Hamburg, was used. In this test, NFκB is activated by adding the pro-inflammatory mediator TNF-alpha. The addition of the alkylamidothiazoles according to the invention prevents the TNF-alpha effect in a dose-dependent manner.

[2] = test system: human dermal fibroblasts; test: LPS-induced prostaglandin E2 formation in human dermal fibroblasts, ELISA of cell culture supernatant; settings: incubation for 24 hours with LPS and increasing concentrations, FIG. 2, compared with diclofenac
Description: (§1) In further experiments it was investigated whether the inhibition of the NFκB activation also actually reduces the subsequent secretion of pro-inflammatory mediators. By way of example, the results of two experiments are documented in the figures. By incubation of human dermal fibroblasts with lipopolysaccharides (LPS), the formation of the pro-inflammatory prostaglandin E2 was induced in the cells, and a specific ELISA was used to determine the concentration in the cell culture supernatant, following incubation for 24 hours with LPS and increasing concentrations of the substances according to the invention. […] In the next experiment, the release of interleukin 1β (IL-1β) from blood leukocytes following stimulation by LPS and simultaneous incubation (for 24 hours) with the substances according to the invention was measured. […] The anti-inflammatory activity level of the alkylamidothiazoles is thus that of recognized pharmacological standards, although higher concentrations of the substances according to the invention do have to be used.

[3] = test system: blood leukocytes; test: release of interleukin 1β from blood leukocytes following stimulation by LPS; settings: FIG. 3
Description: as §1

With `CC(C)C(=O)Nc1nc(-c2ccc(O)cc2O)cs1` [N-(4-(2,4-dihydroxyphenyl)thiazol-2-yl)isobutyramide] the “inhibition of the TNF-alpha-induced activation of NFκB” value [1] was “prevent the TNF-alpha-induced activation of NFκB”, the “release of PGE2” value [2] was “very significantly reduces the release of PGE2 to a level which is comparable to the pharmacological standard diclofenac” and the “release of interleukin 1β (IL-1β)” value ([3]; LPS stimulation and simultaneous incubation for 24 hours) was “very good anti-inflammatory effectiveness”. For the same compound, the “release of interleukin 1β (IL-1β), effectiveness relative to dexamethasone” value ([3]; concentration of 16.67 μM, LPS, 24 hours) was “an effectiveness as for 500 ng of dexamethasone”.
